Data: patent US7378387B2, “Method of suppressing immune response by reducing intracellular content of glutathione in macrophages and monocytes” (Ajinomoto Co., Inc., priority 1997, dated 2008)

How the values were obtained:
IL-12 [1] = assay: IL-12 production from macrophages induced through administration (Example 9, Table 1); type: in vivo, DBA/2 mice; details: LPS 100 ng/ml, IFNγ 100 units/ml
Procedure: (§1) The amount of IL-12 was determined through bioassay using cells of human T cell strain 2D6 (J. Leukocyte Biology, vol. 61, p. 346, 1997).
(§2) 2D6 cells which had been incubated in an RPMI 1640 medium containing 500 pg/ml of recombinant human IL-12, 50 μM of 2-mercaptoethanol and 10% FCS (fetal calf serum) were moved to a tube, and centrifugally washed three times with the above-mentioned medium without IL-12 and cell density was adjusted to 1×10^5/ml. The cell suspension was added in an amount of 100 μl each to a 96-well flat bottom plate containing a sample serially diluted in advance with an RPMI 1640 medium containing 50 μM of 2-mercaptoethanol and 10% FCS in an amount of 100 μl each. Subsequently, the mixture was charged into a 5% O2 incubator of 37° C., and incubated for 48 hours. For final 6 hours, ^3H-TdR was pulsed (a substance adjusted to 370 kBq/ml in an RPMI 1640 medium containing 50 μM of 2-mercaptoethanol and 10% FCS was added in an amount of 50 μl each). The cells a harvested, and the radioactivity was measured using a β counter (Matrix 96, supplied by Packard).
The increase in the amounts of oxidative macrophages can easily be determined visually from the fact that almost no reaction product with monochlorobimane is observed, namely, a gray or blue image is provided, and the increase in the amounts of reductive macrophages from the fact that a red or yellow image is provided respectively. […] Meanwhile, the same examination was conducted by harvesting peritoneal exudate cells after 20 hours of the administration of 2 mg of N-acetylcystine (NAC).
Thus, the peritoneal exudate adherent cells were incubated in the following manner, and the amounts of NO and IL-12 produced in the culture supernatant were measured. With respect to the amount of IL-6, the amount of IL-6 produced spontaneously in the absence of a stimulator was measured.
Cells: The peritoneal exudate adherent cells obtained by the stimulation, namely, the macrophages were added to a 96-well microplate in an amount of 1×10^5 cells/200 μl each.
Medium: Phenol red-free RPMI 1640: 200 μl/well
LPS: Lipopolysaccharide (made by Sigma Co.) (origin: E. coli) 100 ng/ml

[2] = test system: spontaneous onset of insulin-dependent diabetes mellitus; assay: Onset of diabetes mellitus in NOD mice dosed at age 3 to 6 and 9 to 11 weeks (Example 24); type: in vivo; details: doses as in the table line, 15 times in total, judged on week 22, saline 60
Text: NOD mice purchased from Nippon Clair, Co. were naturally mated together. Among the off spring mice, a colony of NOD mice with a high frequency of the spontaneous onset of insulin-dependent diabetes mellitus was established. Female NOD mice from the colony were used for the present experiment. […] Urine glucose was detected, using Uropaper (BM Test Glucose 5000, manufactured by Yamanouchi Pharmaceuticals, Co. Ltd.). The onset was judged on week 22.

IL-12 [3] = assay: IL-12 production of MΦ from JaK3 knock out mice (Example 6); type: in vivo; details: stimulation of LPS or IFNγ; 1 mg/ml in city water, 24 days; no production in control group
Procedure: as §1
as §2, with “Subsequently, the mixture was charged into a 5% O2 incubator of 37° C., and incubated for 48 hours. For final 6 hours, ^3H-TdR was pulsed (a substance adjusted to 370 kBq/ml in an RPMI 1640 medium containing 50 μM of 2-mercaptoethanol and 10% FCS was added in an amount of 50 μl each).” left out
(§3) Macrophages (MΦ) were prepared from knock out mice deficient in a molecule participating in a signal transduction system from a receptor, and the function of the redox system was analyzed. […]
(§4) Peritoneal cells were harvested from three groups of knock out mice, and stimulated with LPS, IL-2, IFNγ and a combination thereof. The NO production, the IL-6 production and the IL-12 production were measured. […] Then, the IL-6 production was analyzed. In LPS stimulation, the amount was detected as 962 pg/ml in the knock out mice derived MΦ culture, 122 pg/ml in the NAC group, and 82 pg/ml in the GSH-OEt group. […]

[4] = test system: reductive glutathione in MΦ; assay: GSH content in MΦ of JaK3 knock out mice by ACAS after free intake in city water (Example 6); type: in vivo; details: free intake of city water containing 1 mg/ml, 24 days
Procedure: Three-hundred microliters of a cell suspension adjusted concentration of 3×10^5 cells/ml in an RPMI 1640 medium (phenol red-free) were charged into a chambered coverglass (#136439, supplied by Nunc), and incubated at 37° C. for 2 hours using a CO2 incubator. The culture solution was washed with the medium, and 300 μl of monochlorobimane (supplied by Molecular Plobe) adjusted to 10 μM in the same medium were added thereto. The mixture was charged into a CO2 incubator of 37° C., and the reaction was conducted for 30 minutes. The fluorescent intensity was measured with ACAS. In ACAS, a UV laser was used.
Macrophages (MΦ) were prepared from knock out mice deficient in a molecule participating in a signal transduction system from a receptor, and the function of the redox system was analyzed. […] Methods applied in Example 2 was repeated. JaK3 knock out mice were divided into three groups. A control group was a group of usual city water free-intake. An NAC group was a group of free intake of city water containing 1 mg/ml of NAC. A GSH-OEt group was a group of free intake of city water containing 1 mg/ml of GSH-OEt. […]
Peritoneal cells of knock out mice which had undergone the respective treatments were harvested, and the GSH content in the cells was analyzed using ACAS with MCB. […]

IL-6 = IL-6 production of MΦ from JaK3 knock out mice (Example 6); type: in vivo; details: LPS stimulation; 1 mg/ml in city water, 24 days; control knock out mice 962 pg/ml
Procedure: A stimulator was added to 1×10^6 MΦ, and the incubation was conducted at 37° C. for 2 days in a CO2 incubator. After centrifugation, the culture supernatant was collected.
The amount of IL-6 was determined using IL-6 dependent mouse hybridoma MH60 cells (J. Eur. Immunol., vol. 18, p. 951, 1988). One hundred microliters of the culture supernatant were added to 100 μl of the MH60 cell suspension adjusted to 1×10^5 cells/ml in a 10% FCS-containing RPMI medium, and the mixed solution was incubated at 37° C. for 2 days in a CO2 incubator. […] Immediately after the dissolution, an absorbance of 570 nm was measured with an immunometer (supplied by Bio-Rad).
as §3, §4

Row | Compound | IL-12, amount produced relative to that of control group (IL-12 [1]) | Frequency (%) of onset of diabetes mellitus ([2]; intraperitoneal) | amount of IL-12 (IL-12 [3]) | content of reductive glutathione in MΦ in comparison with control mice [4] | IL-6 production (IL-6) | Frequency (%) of onset of diabetes mellitus ([2]; oral)
1 | CC(=O)N[C@@H](CSSC[C@H](NC(C)=O)C(=O)O)C(=O)O [(NAC)2, N,N′-diacetylcystine] | 15% | – | – | – | – | –
2 | COC(=O)[C@H](CSSC[C@H](NC(C)=O)C(=O)OC)NC(C)=O [(NAC-OMe)2, N,N′-diacetylcystine dimethyl ester] | 11% | 70% | – | – | – | –
3 | CCOC(=O)CNC(=O)[C@H](CS)NC(=O)CC[C@H](N)C(=O)O [GSH-OEt, glutathione monoethyl ester] | – | 0% | 610 pg/mL | markedly increased | 82 pg/mL | –
4 | CC(=O)N[C@@H](CS)C(=O)O [NAC, N-acetylcysteine, reference compound] | 920% | – | 420 pg/mL | markedly increased | 122 pg/mL | 40%
